Article PMC4490105 (Cell reports, 2015)

Assays:
[1] = system: influenza A/PR/8/34 (PR8); details: ref Shirey et al., 2013; cited from earlier work
[2] = system: TLR7; assay: R848; assay type: cell-based, mouse; details: murine macrophages; R848 (2.85 μM); Figure 2E, F
[3] = target: NF-kB activator 1 CC loop decoy peptide SEFIR CC loop (Homo sapiens) (UniProt O43734); assay: SPR; details: cited from earlier work

Sequence of IL-17RA (Q96F46 33-866): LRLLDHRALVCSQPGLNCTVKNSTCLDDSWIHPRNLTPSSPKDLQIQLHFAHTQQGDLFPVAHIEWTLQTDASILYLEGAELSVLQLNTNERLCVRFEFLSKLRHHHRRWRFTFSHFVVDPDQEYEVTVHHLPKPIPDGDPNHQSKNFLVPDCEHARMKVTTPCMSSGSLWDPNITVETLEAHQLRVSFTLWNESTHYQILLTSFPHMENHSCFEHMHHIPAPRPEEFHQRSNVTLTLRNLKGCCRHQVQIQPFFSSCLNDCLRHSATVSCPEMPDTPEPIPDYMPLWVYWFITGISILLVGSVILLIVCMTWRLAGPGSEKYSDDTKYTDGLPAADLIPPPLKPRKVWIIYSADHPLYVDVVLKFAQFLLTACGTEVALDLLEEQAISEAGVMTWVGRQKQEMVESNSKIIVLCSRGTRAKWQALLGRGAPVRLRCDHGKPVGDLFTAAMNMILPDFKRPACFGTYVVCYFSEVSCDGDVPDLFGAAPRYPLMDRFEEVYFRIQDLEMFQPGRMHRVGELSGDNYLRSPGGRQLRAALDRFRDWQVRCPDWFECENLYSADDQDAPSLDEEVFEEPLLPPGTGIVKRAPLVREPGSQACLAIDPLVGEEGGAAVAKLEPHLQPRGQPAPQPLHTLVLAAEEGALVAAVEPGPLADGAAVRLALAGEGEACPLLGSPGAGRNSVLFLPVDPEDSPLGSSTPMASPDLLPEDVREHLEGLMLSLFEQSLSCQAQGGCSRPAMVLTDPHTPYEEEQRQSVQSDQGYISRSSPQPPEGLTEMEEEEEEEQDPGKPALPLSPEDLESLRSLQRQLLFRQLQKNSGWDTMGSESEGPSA

CCCCCC/C=C\CCCCCCCCCC(=O)N[C@H]1[C@H](OC[C@H]2O[C@H](OP(=O)(O)O)[C@H](NC(=O)CC(=O)CCCCCCCCCCC)[C@@H](OCCCCCCCCCC)[C@@H]2O)O[C@H](COC)[C@@H](OP(=O)(O)O)[C@@H]1OCC[C@@H](CCCCCCC)OC [Eritoran]
Protection from PR8 infection, TLR2−/− mice [1]: could not be protected
Protection from PR8 infection, mice [1]: protected mice from PR8 infection

CCOCc1nc2c(N)nc3ccccc3c2n1CC(C)(C)O [R848]
Induction of TNF-α and IL-6 [2]: induced robust production

IL-17RA (from UniProt Q96F46)
Kd [3]: 117 µM
